Numbers after ± are expanded uncertainties.
Key:
[1] = xn = mol fraction of the nth substance listed; conditions: 101.3 kPa, Liquid; for viscosity: Falling or rolling sphere viscometry; for speed of sound: Sing-around technique in a fixed-path interferometer; for mass density: Vibrating tube method
[2] = refractive index (Na D-line) (dimensionless); xn = mol fraction of the nth substance listed; conditions: 101.3 kPa, Liquid, Standard Abbe refractometry

CC[n+]1ccccc1.O=S(=O)([N-]S(=O)(=O)C(F)(F)F)C(F)(F)F [1-ethylpyridinium bis[(trifluoromethyl)sulfonyl]imide] + O
Conditions	mass density, [1] [kg/m3]	refractive index, [2]	speed of sound, [1] [m/s]	viscosity, [1] [mPa·s]
298.15 K, x2 = 0.16	1526.97 ± 1.1	1.43876 ± 0.00038	1270.7 ± 1.5	29.14 ± 0.96
298.15 K, x2 = 0.213	1523.14 ± 1.1	1.43815 ± 0.00038	1272.3 ± 1.5	25.97 ± 0.77
298.15 K, x2 = 0.311	1515.34 ± 1.1	1.43705 ± 0.00037	1276 ± 1.5	22.45 ± 0.65
303.15 K, x2 = 0.16	1521.95 ± 1.1	1.4374 ± 0.00037	1259.7 ± 1.5	24.71 ± 0.86
303.15 K, x2 = 0.213	1518.1 ± 1.1	1.43684 ± 0.00038	1261.3 ± 1.5	22.07 ± 0.67
303.15 K, x2 = 0.311	1510.26 ± 1.1	1.43552 ± 0.00037	1265 ± 1.5	18.74 ± 0.55
308.15 K, x2 = 0.16	1516.97 ± 1.1	1.43587 ± 0.00037	1248.8 ± 1.5	21.3 ± 0.74
308.15 K, x2 = 0.213	1513.09 ± 1.1	1.43539 ± 0.00037	1250.4 ± 1.5	18.95 ± 0.58
308.15 K, x2 = 0.311	1505.19 ± 1.1	1.43461 ± 0.00036	1254 ± 1.5	16.02 ± 0.48
313.15 K, x2 = 0.16	1512 ± 1.1	1.4344 ± 0.00036	1238 ± 1.5	18.53 ± 0.65
313.15 K, x2 = 0.213	1508.09 ± 1.1	1.43415 ± 0.00037	1239.6 ± 1.5	16.4 ± 0.51
313.15 K, x2 = 0.311	1500.14 ± 1.1	1.43318 ± 0.00036	1243.2 ± 1.4	13.8 ± 0.42
318.15 K, x2 = 0.16	1507.04 ± 1.1	1.43296 ± 0.00036	1227.4 ± 1.5	16.21 ± 0.57
318.15 K, x2 = 0.213	1503.11 ± 1.1	1.43277 ± 0.00036	1228.9 ± 1.5	14.34 ± 0.45
318.15 K, x2 = 0.311	1495.11 ± 1.1	1.43193 ± 0.00036	1232.4 ± 1.4	12.1 ± 0.37
323.15 K, x2 = 0.16	1502.11 ± 1.1	1.43144 ± 0.00036	1216.9 ± 1.5	14.16 ± 0.47
323.15 K, x2 = 0.213	1498.16 ± 1.1	1.43144 ± 0.00036	1218.3 ± 1.5	12.71 ± 0.39
323.15 K, x2 = 0.311	1490.1 ± 1.1	1.43082 ± 0.00035	1221.8 ± 1.4	10.71 ± 0.33
328.15 K, x2 = 0.16	1497.2 ± 1.1	1.43003 ± 0.00036	1206.4 ± 1.5	12.5 ± 0.39
328.15 K, x2 = 0.213	1493.22 ± 1.1	1.42994 ± 0.00035	1207.8 ± 1.5	11.35 ± 0.34
328.15 K, x2 = 0.311	1485.1 ± 1.1	1.42955 ± 0.00035	1211.2 ± 1.4	9.547 ± 0.3
333.15 K, x2 = 0.16	1492.3 ± 1.1	1.42859 ± 0.00036	1196.1 ± 1.5	11.14 ± 0.34
333.15 K, x2 = 0.213	1488.3 ± 1.1	1.42857 ± 0.00035	1197.4 ± 1.5	10.18 ± 0.3
333.15 K, x2 = 0.311	1480.12 ± 1.1	1.42824 ± 0.00035	1200.7 ± 1.4	8.555 ± 0.27
338.15 K, x2 = 0.16	1487.43 ± 1.1	1.42719 ± 0.00036	1185.9 ± 1.5	9.991 ± 0.3
338.15 K, x2 = 0.213	1483.4 ± 1.1	1.42725 ± 0.00035	1187.1 ± 1.5	9.164 ± 0.27
338.15 K, x2 = 0.311	1475.16 ± 1.1	1.42694 ± 0.00035	1190.3 ± 1.4	7.709 ± 0.24
343.15 K, x2 = 0.16	1482.56 ± 1.1	1.42569 ± 0.00036	1175.7 ± 1.5	9.019 ± 0.26
343.15 K, x2 = 0.213	1478.5 ± 1.1	1.42589 ± 0.00035	1176.9 ± 1.5	8.282 ± 0.24
343.15 K, x2 = 0.311	1470.22 ± 1.1	1.42551 ± 0.00035	1180 ± 1.4	6.971 ± 0.22
